Experimental data: patent US20220177954A1, “NUCLEIC ACID PROBES” (CYTOTEST INC., priority 2020, published 2022)

What was measured:
[1] = tested on: PC-3 cell lines wt, chd1 ko1, chd1 ko2; assay: Viability cell proliferation assay (PrestoBlue) in PC-3 wt versus chd1 ko isogenic cell lines; format: cell-based, human; conditions: CHD1 deficient (CRISPR-Cas9 knock out) PC-3 cells versus wild type, 24 hrs exposure, then 5 days drug-free
Method: PC-3 prostate cell line was purchased from ATCC® and grown in RPMI 1640 (Gibco) supplemented with 10% FBS (Gibco). RPE1-CHD1 knock out cells were provided by Alan D. D'Andrea's laboratory. Cells were incubated at 37° C. in 5% CO2, and regularly tested for Mycoplasma spp. contamination.
Full length SpCas9 ORF was introduced in PC-3 cell population by Lentiviral transduction using lentiCas9-Blast (Addgene #52962) construction. After antibiotics (blasticidin) selection, survival populations were single cell cloned, isogenic cell lines were generated and tested for Cas9 activity by cleavage assay.
CHD1 was targeted in stable CRISPR-Cas9 expressor isogenic PC-3 cell line using guide RNA CHD1_ex2_g1 (caccg[…]), resulting in PC-3 chd1 ko 1, and chd1 ko 2 homozygous loss cell lines.
Exponentially growing PC-3 cell lines wt, chd1 ko1, chd1 ko2 were seeded in 96-well plates (1000 cells/well) and incubated for 36 hrs to facilitate cell attachment. Identical cell numbers of seeded parallel isogenic lines were verified by the Celigo Imaging Cytometer after attachment.
Cells were exposed to Talazoparib (Selleckchem), Olaparib (MedChemExpress) and Bleomycin sulfate (Fisher Scientific) for 24 hrs, then kept in drug-free fresh media for 5 days until cell growth was determined by the addition of PrestoBlue (Invitrogen) and incubated for 2.5 hrs. Cell viability was determined by using the BioTek plate reader system. Fluorescence was recorded at 560 nm/590 nm, and values were calculated based on the fluorescence intensity. IC50 values were determined by using the AAT Bioquest IC50 calculator tool. P-values were calculated using student's t-test. P-values <0.05 were considered statistically significant.

CHD1 null cells = conditions: cited from earlier work

Molecule	increase in sensitivity upon CHD1 deletion [1]	olaparib sensitivity of CHD1-deficient cancer cells (CHD1 null cells)
Cn1ncnc1[C@H]1c2n[nH]c(=O)c3cc(F)cc(c23)N[C@@H]1c1ccc(F)cc1 [talazoparib, Talazoparib]	15-20 fold	
O=C(c1cc(Cc2n[nH]c(=O)c3ccccc23)ccc1F)N1CCN(C(=O)C2CC2)CC1 [olaparib, Olaparib]	approximately 5 fold	relatively mild
Bleomycin sulfate	5 fold	
